Data published in patent US10189841B2, “Purinones as ubiquitin-specific protease 1 inhibitors” (Forma Therapeutics, Inc., priority 2015, dated 2019).

Each compound was assayed against USP1 (construct USP1 (I-785, GG670, 671AA)/UAF1 (I-677)-Flag) (Homo sapiens (Human), UniProt O94782, G670A/G671A) (assay: Ubiquitin-Rhodamine 110 assay for USP1 activity). Conditions: USP1/UAF1 25 pM, Ub-Rh110 25 nM, 30 min preincubation.
Format: biochemical
How it was run: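 Ub-Rh110 (25 nM, ≪Km) cleavage read at ex 485/em 535 in Tris pH 8.0, CaCl2, GSH, Prionex, Triton X-100. The screen used 10 µM compound, 100 pM USP1/UAF1 and 45 min at RT.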

USP1 (construct USP1 (I-785, GG670, 671AA)/UAF1 (I-677)-Flag), sequence (O94782 whole entry G670A/G671A): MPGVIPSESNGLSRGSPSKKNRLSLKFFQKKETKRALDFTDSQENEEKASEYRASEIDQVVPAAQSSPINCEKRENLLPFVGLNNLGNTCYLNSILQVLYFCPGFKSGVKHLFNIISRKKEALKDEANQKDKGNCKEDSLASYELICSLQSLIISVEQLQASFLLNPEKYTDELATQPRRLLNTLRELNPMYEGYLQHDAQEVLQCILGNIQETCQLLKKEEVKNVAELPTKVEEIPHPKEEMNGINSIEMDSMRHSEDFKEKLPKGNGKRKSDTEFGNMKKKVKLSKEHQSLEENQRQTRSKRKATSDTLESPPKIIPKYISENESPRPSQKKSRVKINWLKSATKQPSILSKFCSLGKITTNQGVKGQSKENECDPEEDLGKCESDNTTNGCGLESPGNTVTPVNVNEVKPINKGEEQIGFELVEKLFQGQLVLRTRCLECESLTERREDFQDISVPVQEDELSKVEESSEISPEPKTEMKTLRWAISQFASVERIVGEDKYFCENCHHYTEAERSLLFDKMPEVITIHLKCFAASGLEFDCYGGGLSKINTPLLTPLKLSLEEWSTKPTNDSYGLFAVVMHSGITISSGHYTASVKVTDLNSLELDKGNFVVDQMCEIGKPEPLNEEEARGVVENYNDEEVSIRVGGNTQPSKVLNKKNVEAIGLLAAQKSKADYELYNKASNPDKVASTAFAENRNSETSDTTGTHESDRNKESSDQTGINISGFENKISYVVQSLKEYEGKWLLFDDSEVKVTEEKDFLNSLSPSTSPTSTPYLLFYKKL
USP1 (construct USP1 (I-785, GG670, 671AA)/UAF1 (I-677)-Flag), sequence (Q8TAF3 whole entry partner): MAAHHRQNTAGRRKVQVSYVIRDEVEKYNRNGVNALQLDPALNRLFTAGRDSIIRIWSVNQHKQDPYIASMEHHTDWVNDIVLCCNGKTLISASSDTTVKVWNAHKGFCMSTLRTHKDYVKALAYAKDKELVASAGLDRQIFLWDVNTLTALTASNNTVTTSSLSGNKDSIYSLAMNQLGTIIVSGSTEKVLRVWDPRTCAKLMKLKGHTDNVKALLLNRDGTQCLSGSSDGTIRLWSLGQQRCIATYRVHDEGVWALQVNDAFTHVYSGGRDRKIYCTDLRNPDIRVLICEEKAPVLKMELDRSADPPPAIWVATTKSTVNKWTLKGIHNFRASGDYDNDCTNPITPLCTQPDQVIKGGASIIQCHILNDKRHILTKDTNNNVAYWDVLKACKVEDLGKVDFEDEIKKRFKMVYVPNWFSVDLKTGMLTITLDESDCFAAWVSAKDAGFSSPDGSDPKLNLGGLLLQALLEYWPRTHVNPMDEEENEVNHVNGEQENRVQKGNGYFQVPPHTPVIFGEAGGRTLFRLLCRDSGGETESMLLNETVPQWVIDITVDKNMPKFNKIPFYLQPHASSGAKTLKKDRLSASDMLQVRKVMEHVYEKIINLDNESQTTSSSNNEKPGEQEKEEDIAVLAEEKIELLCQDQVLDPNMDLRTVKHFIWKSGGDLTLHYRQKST

| SMILES | IC50 [nM] |
| --- | --- |
| Cn1cc(C(F)(F)F)nc1-c1ccc(Cn2c(=O)[nH]c3cnc(-c4cccnc4N4CC(C(F)(F)F)C4)nc32)cc1 [Compound I-337, 9-(4-(1-methyl-4-(trifluoromethyl)-1H-imidazol-2-yl)benzyl)-2-(2-(3-(trifluoromethyl)azetidin-1-yl)pyridin-3-yl)-7,9-dihydro-8H-purin-8-one] | < 50 |
| CC(C)c1ccccc1-c1ncc2c(n1)n(Cc1ccc(-c3cn(C(C)C)cn3)cc1)c(=O)n2C [Compound I-277, 9-(4-(1-isopropyl-1H-imidazol-4-yl)benzyl)-2-(2-isopropylphenyl)-7-methyl-7,9-dihydro-8H-purin-8-one] | < 50 |
| COCCn1c(=O)n(Cc2ccc(-c3nc(C(F)(F)F)cn3C)cc2)c2nc(-c3cccnc3C(C)C)ncc21 [Compound I-120, 2-(2-isopropylpyridin-3-yl)-7-(2-methoxyethyl)-9-(4-(1-methyl-4-(trifluoromethyl)-1H-imidazol-2-yl)benzyl)-7,9-dihydro-8H-purin-8-one] | < 50 |
| CC(C)c1ccccc1-c1ncc2c(n1)n(Cc1ccc(-c3cccc4cn[nH]c34)cc1)c(=O)n2C [Compound I-268, 9-(4-(1H-indazol-7-yl)benzyl)-2-(2-isopropylphenyl)-7-methyl-7,9-dihydro-8H-purin-8-one] | 50 to 200 |
| CC(C)c1ccccc1-c1ncc2c(n1)n(Cc1ccc(-c3ncn(C)n3)cc1)c(=O)n2C [Compound I-272, 2-(2-isopropylphenyl)-7-methyl-9-(4-(1-methyl-1H-1,2,4-triazol-3-yl)benzyl)-7,9-dihydro-8H-purin-8-one] | 50 to 200 |
| CC(C)c1ccccc1-c1ncc2[nH]c(=O)n(Cc3ccc(-n4cccn4)nc3)c2n1 [Compound I-146, 9-((6-(1H-pyrazol-1-yl)pyridin-3-yl)methyl)-2-(2-isopropylphenyl)-7,9-dihydro-8H-purin-8-one] | 50 to 200 |
| CC(C)c1ccccc1-c1ncc2c(n1)n(Cc1ccc(-c3cn(C)cn3)cc1)c(=O)n2C [Compound I-271, 2-(2-isopropylphenyl)-7-methyl-9-(4-(1-methyl-1H-imidazol-4-yl)benzyl)-7,9-dihydro-8H-purin-8-one] | < 50 |
| CC(C)c1ccccc1-c1ncc2[nH]c(=O)n(Cc3ccc(-c4ncc(F)n4C)cc3)c2n1 [Compound I-176, 9-(4-(5-fluoro-1-methyl-1H-imidazol-2-yl)benzyl)-2-(2-isopropylphenyl)-7,9-dihydro-8H-purin-8-one] | < 50 |
| Cc1ccnn1-c1ccc(Cn2c(=O)[nH]c3cnc(-c4ccccc4C(C)C)nc32)cc1 [Compound I-184, 2-(2-isopropylphenyl)-9-(4-(5-methyl-1H-pyrazol-1-yl)benzyl)-7,9-dihydro-8H-purin-8-one] | < 50 |
| COCC1CCCN(C(=O)c2ccc(Cn3c(=O)[nH]c4cnc(-c5ccccc5C(C)C)nc43)cc2)C1 (stereo not drawn) [Compound I-368, 2-(2-isopropylphenyl)-9-(4-(3-(methoxymethyl)piperidine-1-carbonyl)benzyl)-7,9-dihydro-8H-purin-8-one] | 50 to 200 |
| Cc1cn(C)c(N2CCC(Cn3c(=O)n(C)c4cnc(-c5ccccc5C(C)C)nc43)CC2)n1 [Compound I-501, 9-((1-(1,4-Dimethyl-1H-imidazol-2-yl)piperidin-4-yl)methyl)-2-(2-isopropylphenyl)-7-methyl-7,9-dihydro-8H-purin-8-one] | 50 to 200 |
| CC(C)c1ncccc1-c1ncc2[nH]c(=O)n(Cc3c(F)cc(-c4nc(C(F)(F)F)cn4C)cc3F)c2n1 [Compound I-85, 9-(2,6-difluoro-4-(1-methyl-4-(trifluoromethyl)-1H-imidazol-2-yl)benzyl)-2-(2-isopropylpyridin-3-yl)-7,9-dihydro-8H-purin-8-one] | 50 to 200 |
| CC(C)c1ccccc1-c1ncc2[nH]c(=O)n(Cc3ccc(-n4ccc(N5CCNCC5)n4)cc3)c2n1 [Compound I-432, 2-(2-isopropylphenyl)-9-(4-(3-(piperazin-1-yl)-1H-pyrazol-1-yl)benzyl)-7,9-dihydro-8H-purin-8-one] | 200 to 2000 |
| CC(C)c1ccccc1-c1ncc2c(n1)n(Cc1ccc(-c3nnc4ccccn34)cc1)c(=O)n2C [Compound I-286, 9-(4-([1,2,4]triazolo[4,3-a]pyridin-3-yl)benzyl)-2-(2-isopropylphenyl)-7-methyl-7,9-dihydro-8H-purin-8-one] | < 50 |
| CC(C)c1ccccc1-c1ncc2[nH]c(=O)n(Cc3ccc(-n4cccn4)c(F)c3)c2n1 [Compound I-177, 9-(3-fluoro-4-(1H-pyrazol-1-yl)benzyl)-2-(2-isopropylphenyl)-7,9-dihydro-8H-purin-8-one] | < 50 |
| O=c1[nH]c2cnc(-c3cccc4c3OC(F)(F)O4)nc2n1Cc1ccc(-n2cccn2)cc1 [Compound I-25, 9-(4-(1H-pyrazol-1-yl)benzyl)-2-(2,2-difluorobenzo[d][1,3]dioxol-4-yl)-7,9-dihydro-8H-purin-8-one] | 50 to 200 |
| COC(=O)c1ccccc1-c1ncc2[nH]c(=O)n(Cc3ccc(-c4nc(C(F)(F)F)cn4C)cc3)c2n1 [Compound I-524, Methyl 2-(9-(4-(1-Methyl-4-(trifluoromethyl)-1H-imidazol-2-yl)benzyl)-8-oxo-8,9-dihydro-7H-purin-2-yl)benzoate] | < 50 |
| Cn1cc(C(F)(F)F)nc1-c1ccc(Cn2c(=O)n(C)c3cnc(-c4cccnc4OC(F)F)nc32)cc1 [Compound I-48, 2-(2-(difluoromethoxy)pyridin-3-yl)-7-methyl-9-(4-(1-methyl-4-(trifluoromethyl)-1H-imidazol-2-yl)benzyl)-7,9-dihydro-8H-purin-8-one] | < 50 |
| CC(C)c1ccccc1-c1ncc2[nH]c(=O)n(Cc3ccc(C(=O)N(C)C4CCCCC4)cc3)c2n1 [Compound I-364, N-cyclohexyl-4-((2-(2-isopropylphenyl)-8-oxo-7,8-dihydro-9H-purin-9-yl)methyl)-N-methylbenzamide] | < 50 |
| CNc1nc(-c2ccccc2C(C)C)nc2c1[nH]c(=O)n2Cc1ccc(-c2nc(C(F)(F)F)cn2C)cc1 [Compound I-532, 2-(2-Isopropylphenyl)-9-(4-(1-methyl-4-(trifluoromethyl)-1H-imidazol-2-yl)benzyl)-6-(methylamino)-7,9-dihydro-8H-purin-8-one] | < 50 |
| O=c1[nH]c2cnc(-c3cccnc3OCC(F)(F)F)nc2n1[C@@H]1CC[C@H]1c1ccc(-n2cccn2)cc1 [Compound I-24, 9-((1R,2S)-2-(4-(1H-pyrazol-1-yl)phenyl)cyclobutyl)-2-(2-(2,2,2-trifluoroethoxy)pyridin-3-yl)-7,9-dihydro-8H-purin-8-one] | 50 to 200 |
| CC(C)c1ccccc1-c1ncc2c(n1)n(Cc1cccc(OCC3CCOC3)c1)c(=O)n2C (stereo not drawn) [Compound I-240, 2-(2-isopropylphenyl)-7-methyl-9-(3-((tetrahydrofuran-3-yl)methoxy)benzyl)-7,9-dihydro-8H-purin-8-one] | 200 to 2000 |
| CC(C)c1ccccc1-c1ncc2[nH]c(=O)n(Cc3ccc(C(=O)N(C)CCO)cc3)c2n1 [Compound I-376, N-(2-hydroxyethyl)-4-((2-(2-isopropylphenyl)-8-oxo-7,8-dihydro-9H-purin-9-yl)methyl)-N-methylbenzamide] | 200 to 2000 |
| CC(C)c1ncccc1-c1ncc2[nH]c(=O)n([C@H](C)c3ccc(-n4cccn4)cc3)c2n1 [Compound I-14, (R)-9-(1-(4-(1H-pyrazol-1-yl)phenyl)ethyl)-2-(2-isopropylpyridin-3-yl)-7,9-dihydro-8H-purin-8-one] | 50 to 200 |
